Results on one compound are retold here after patent US11160870B2, “Extended release microparticles and suspensions thereof for medical therapy” (Graybug Vision, Inc., priority 2017, dated 2021).

This data set has as its system eye. Description: Acute non-GLP IVT ocular tolerability and toxicity study of sunitinib malate (free drug). It counts as in vivo, pigmented rabbits. The following applies: single bilateral IVT injection, up to 7 days. As to the method:
An acute, non-GLP IVT study was conducted to evaluate the ocular tolerability and toxicity of sunitinib malate (free drug) for up to 7 days following a single IVT injection. Sunitinib malate was formulated in phosphate buffered saline and injected bilaterally (0.1 mL) at 0.125 or 1.25 mg per eye.

As to `CCN(CC)CCNC(=O)c1c(C)[nH]c(/C=C2\C(=O)Nc3ccc(F)cc32)c1C` [sunitinib malate], the “no-observed-adverse-effect-level (NOAEL) dose” value is 0.125 mg/eye.
